Patent US20070154882A1, “Beta-polypeptides that inhibit cytomegalovirus infection” (priority 2005, published 2007)

Legend:
[1] = system: HCMV membrane fusion (nuclear localization of pp65) in NHDF cells; experiment: pp65 translocation (virion content delivery) assay; type: cell-based; conditions: HCMV diluted with 100 µM beta-peptide; 4° C. 90 min, then 37° C. 35 min
Procedure: NHDF cells were grown on glass cover-slips in 12-well plates as above. The HCMV was diluted with 100 µM beta-peptide in SF-DMEM and cooled to 4° C. The treatment was then added to cooled cells, which were incubated at 4° C. for 90 min, assuring viral attachment but not entry. The cells were then transferred to 37° C. for 35 min. The cells were then fixed in 3% paraformaldehyde and immunostained for pp65 as described (Lopper, M.; Compton, T. (2004) in J. Virol. Vol. 78, pp. 8333-8341). Images were taken on the Nikon Eclipse TE2000-S with appropriate filters, using consistent exposure times.
The infectivity assays used in these Examples measures immediate early gene expression; immediate early (IE) proteins are the first viral proteins expressed in infected cells. Inhibition of viral gene expression could reflect interference at a variety of points in the virus life cycle such as inhibition of IE gene transcription or translation. A virion content delivery assay was performed to test whether the beta-peptides act at the viral entry stage, as they have been designed to do. Immediately upon membrane fusion, the phosphoprotein-rich tegument layer of the virus is released into the cytoplasm of the target cell. The pp65 protein, highly abundant in the virion tegument, diffuses rapidly to the nucleus after membrane fusion. […]

For `CNC(=O)C[C@H](C)NC(=O)COC(=O)[C@H]1CCCN1C(=O)CC(Cc1ccccc1)NC(C)=O` (some centres unmarked), the melting point was 128 to 129 °C.

In the case of `CC(=O)NC1CCCC1C(=O)N[C@H](CC(=O)NC1CCCC1C(=O)NC[C@H](CC(C)C)C(=O)NC1CNCC1C(=O)NC1CNCC1C(=O)N[C@H](CC(=O)NC1CCCC1C(=O)NC[C@H](Cc1ccc(O)cc1)C(=O)NC1CNCC1C(=O)NC1CNCC1C(=O)N[C@H](CC(=O)NC1CNCC1C(N)=O)Cc1ccc2ccccc2c1)Cc1ccccc1)CC(C)C` (some centres unmarked) [EPE-II-225], the “Cytotoxicity, as indicated by P1 uptake” value (NHDF cells) is reported as “Toxic”.

For `CC(=O)NC1CCCC1C(=O)N[C@H](CC(=O)NC1CCCC1C(=O)NC[C@H](CC(C)C)C(=O)NC1CNCC1C(=O)NC1CNCC1C(=O)N[C@H](CC(=O)NC1CCCC1C(=O)NC[C@H](Cc1ccc(O)cc1)C(=O)NC1CNCC1C(=O)NC1CNCC1C(=O)N[C@H](CC(=O)NC1CNCC1C(N)=O)Cc1cccc2ccccc12)Cc1ccccc1)CC(C)C` (some centres unmarked) [EPE-II-227], the “Cytotoxicity, as indicated by P1 uptake” value (NHDF cells) was “Toxic”.

In the case of `CC(=O)NC1CCCC1C(=O)N[C@H](CC(=O)NC1CCCC1C(=O)NC[C@H](CC(C)C)C(=O)NC1CNCC1C(=O)NC1CNCC1C(=O)N[C@H](CC(=O)NC1CCCC1C(=O)NC[C@H](Cc1ccc(O)cc1)C(=O)NC1CNCC1C(=O)NC1CNCC1C(=O)N[C@H](CC(=O)NC1CNCC1C(N)=O)C(C)C)Cc1ccc2ccccc2c1)CC(C)C` (some centres unmarked) [EPE-II-231], the “Cytotoxicity, as indicated by P1 uptake” value (NHDF cells) is reported as “Toxic”.

For `CC(=O)NC1CCCC1C(=O)N[C@H](CC(=O)NC1CCCC1C(=O)NC[C@H](CC(C)C)C(=O)NC1CNCC1C(=O)NC1CNCC1C(=O)N[C@H](CC(=O)NC1CCCC1C(=O)NC[C@H](Cc1ccc(O)cc1)C(=O)NC1CNCC1C(=O)NC1CNCC1C(=O)N[C@H](CC(=O)NC1CNCC1C(N)=O)C(C)C)Cc1cccc2ccccc12)CC(C)C` (some centres unmarked) [EPE-II-233], the “Cytotoxicity, as indicated by P1 uptake” value (NHDF cells) was “Toxic”.

In the case of `CC(=O)NC[C@H](Cc1ccc(O)cc1)C(=O)NC1CCCC1C(=O)NC1CNCC1C(=O)NC1CNCC1C(=O)N[C@H](CC(=O)NC1CNCC1C(=O)NC1CNCC1C(=O)NC1CCCC1C(=O)NC[C@H](CC(C)C)C(=O)NC1CNCC1C(=O)NC1CCCC1C(=O)N[C@H](CC(=O)N[C@H](CC(N)=O)Cc1ccccc1)C(C)C)CC(C)C` (some centres unmarked) [ERP-II-005], the toxicity toward fibroblasts (NHDF cells) is reported as “highly toxic” and the “disruption of cell membranes” value (human red blood cells) is reported as “does not simply disrupt cell membranes”.

For heparin, the “nuclear localization of pp65” value [1] was “eliminates pp65 accumulation in the nucleus”.
